IC50 data for 16 molecules are collected here from patent publication US10954214B2 (Janssen Pharmaceutica NV, priority 2016, dated 2021).

The test system of one assay is Jurkat cells. The assay can be described thus: PMA Induced IL2 Production In Jurkat Cells. In kind it is cell-based. The note with it: Homo sapiens, PMA/Ionomycin, 20 h, read-out: IL-2 prod h Jurkat PMA IC50. On the procedure:
Jurkat cells were maintained in complete RPMI 1640 media containing 10% fetal bovine serum, 10 mM HEPES, 100 units/mL of penicillin and 100 μg/mL of streptomycin. Prior to the assay, compounds were made 2- to 4-fold serial dilutions in DMSO. A volume of 10 μL of DMSO-diluted compound in each well were further diluted into 240 μL RPMI1640 complete media. Jurkat cells were harvested by centrifuge at 1200 RPM for 5 min, washed one time with RPMI 1640 media, and suspended in fresh complete RPMI 1640 media at concentration of 1.25×10^6 cell/mL. A volume of 160 uL of Jurkat cells (2×10^5 cells) were seeded in each well of 96 well plate-bottom plates. A volume of 20 uL of diluted compound in RMPI 1640 complete media were added to each well and incubated with Jurkat cells for 30 min at 37° C. in a 5% CO2 incubator. A volume 20 μL of diluted PMA/Ionomycin (81 nM/1.3 uM respectively, ebioscience, catalog number 00-4970-93) in RMPI 1640 complete media were added to each well. After incubation at 37° C. in 5% CO2 incubator for 20 h, supernatants were harvested. IL-2 concentration was assessed by ELISA (IL2 Duoset, R&D Systems, catalog number DY202). Colorimetric intensity at 450 nm was read by Spectramax plate reader and analyzed with Softmax Pro software. Cell viability was assessed by Cell Titer Glo kit (Promega, catalog number G7571) using Victor Luminescence reader (Victor 3V 4202938 by Perkin Elmer).

In a further assay the test system is TMD8 cells. The experiment in a line: 4-day proliferation assay, TMD8. The note with it: Homo sapiens, 96 h, 4 days incubation, CellTiterGLO, read-out: Anti-proliferation: TMD-8 IC50. The format is cell-based. Summed up:
(§1)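 Each line was plated at 10,000 cells per well for linear growth, with no beta-mercaptoethanol during the assay. OCI-Ly3 cells were below passage 10.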
Background: Cellular ATP, detected with luciferase, serves as a proxy for viable cell number.

In assay [1] the target is full-length MALT1 protein (Strep-MALT1(1-824)-His) (Homo sapiens (Human), UniProt Q9UDY8). The assay can be described thus: MALT1 Biochemical Protease Assay (Ac-LRSR-AMC substrate). The note with it: 10 nM FL MALT1, 200 μM Ac-LRSR-AMC, 4 h at RT; read-out: MALT1_Biochemical activity (Ac-LRSR-amc) IC50. The essentials:
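Fluorescence from AMC release off the quenched LRSR substrate was read after a 4 h reaction at RT. Values were normalised to no-enzyme and uninhibited controls and fitted for IC50 and Hill coefficient.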

The next assay deals with OCI-Ly3 cells. The experiment in a line: 4-day proliferation assay, OCI-Ly3. The format is cell-based, human. The note with it: Homo sapiens, 96 h, 4 days incubation, CellTiterGLO, read-out: Anti-proliferation: OCI-LY-3 IC50. The essentials: as §1
The test system of assay [2] is IL10 secretion by TMD8 ABC-DLBCL cells. The assay can be described thus: Human IL10 Mesoscale assay (TMD-8). The format is cell-based. The note with it: Homo sapiens, TMD8; TMD-8 cells, 24 h. Summed up: (§2)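 Read-out: MSD electrochemiluminescence of IL6/IL10 in supernatants. Cells (100,000/well, no beta-mercaptoethanol) were exposed to compounds at 15 μM down to 58.6 nM, 1:2 dilutions, for 24 h at 37° C, 5% CO2. Normalised between DMSO (high) and RN486 (low) controls.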

In assay [3] the test system is IL6 secretion by TMD8 ABC-DLBCL cells. The experiment in a line: Human IL6 Mesoscale assay (TMD-8). The format is cell-based. The note with it: Homo sapiens, TMD8; TMD-8 cells, 24 h. Summed up: as §2

Sequence of full-length MALT1 protein (Strep-MALT1(1-824)-His) (Q9UDY8 whole entry): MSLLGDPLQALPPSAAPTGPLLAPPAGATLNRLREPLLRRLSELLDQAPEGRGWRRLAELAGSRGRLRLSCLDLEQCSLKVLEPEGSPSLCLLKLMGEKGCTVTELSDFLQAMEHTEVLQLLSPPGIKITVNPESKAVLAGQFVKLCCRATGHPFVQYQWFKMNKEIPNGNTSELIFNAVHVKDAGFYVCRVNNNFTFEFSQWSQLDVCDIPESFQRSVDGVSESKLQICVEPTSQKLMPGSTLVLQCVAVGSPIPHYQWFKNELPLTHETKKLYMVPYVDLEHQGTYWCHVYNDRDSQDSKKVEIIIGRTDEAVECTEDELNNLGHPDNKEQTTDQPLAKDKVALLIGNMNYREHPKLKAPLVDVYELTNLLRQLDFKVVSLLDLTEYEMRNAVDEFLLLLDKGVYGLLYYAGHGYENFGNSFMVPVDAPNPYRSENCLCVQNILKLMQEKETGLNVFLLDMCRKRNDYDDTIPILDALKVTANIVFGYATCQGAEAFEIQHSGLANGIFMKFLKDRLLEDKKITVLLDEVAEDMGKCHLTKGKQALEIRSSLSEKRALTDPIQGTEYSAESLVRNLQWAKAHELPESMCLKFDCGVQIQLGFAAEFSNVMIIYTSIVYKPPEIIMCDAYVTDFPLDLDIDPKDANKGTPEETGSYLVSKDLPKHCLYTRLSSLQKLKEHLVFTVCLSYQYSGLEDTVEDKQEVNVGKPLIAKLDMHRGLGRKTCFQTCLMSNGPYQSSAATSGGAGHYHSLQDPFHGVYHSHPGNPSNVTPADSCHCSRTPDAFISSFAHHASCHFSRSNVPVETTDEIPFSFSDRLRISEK

As to `O=C(Nc1cnc(-n2nccn2)c(Cl)c1)c1cnn(-c2cccc3ccccc23)c1C(F)(F)F` [Cpd 2, N-(5-Chloro-6-(2H-1,2,3-triazol-2-yl)pyridin-3-yl)-1-(naphthalen-1-yl)-5-(trifluoromethyl)-1H-pyrazole-4-carboxamide], the IC50 with Jurkat cells came out at 59 nM; in the assay on TMD8 cells, 13800 nM; in assay [1], 12 nM; in the assay on OCI-Ly3 cells, 420 nM; in assay [2] it was 28 nM; in assay [3] it was 52 nM.
Turning to `O=C(Nc1ccnc(C(F)(F)F)c1)c1cnn(-c2cccc3ccccc23)c1C(F)(F)F` [Cpd 3, 1-(Naphthalen-1-yl)-5-(trifluoromethyl)-N-(2-(trifluoromethyl)pyridin-4-yl)-1H-pyrazole-4-carboxamide], the IC50 with Jurkat cells is 160 nM; in the assay on TMD8 cells, 9550 nM; in assay [1] it was 191 nM; in the assay with OCI-Ly3 cells, approximately 2880 nM; in assay [2], 138 nM; in assay [3], 219 nM.
As to `O=C(Nc1cncc(C(F)(F)F)c1)c1cnn(-c2cccc3ccccc23)c1C(F)(F)F` [Cpd 4, 1-(Naphthalen-1-yl)-5-(trifluoromethyl)-N-(5-(trifluoromethyl)pyridin-3-yl)-1H-pyrazole-4-carboxamide], the IC50 in the assay with Jurkat cells is 360 nM; in the assay on TMD8 cells it was approximately 15800 nM; in assay [1], 200 nM; with OCI-Ly3 cells, approximately 500 nM; in assay [2] it was 214 nM; in assay [3], 339 nM.
For `O=C(Nc1cnc(-c2ncco2)c(Cl)c1)c1cnn(-c2cccc3ccncc23)c1C(F)(F)F` [Cpd 22, N-(5-chloro-6-(oxazol-2-yl)pyridin-3-yl)-1-(isoquinolin-8-yl)-5-(trifluoromethyl)-1H-pyrazole-4-carboxamide], the IC50 is 1860 nM in the assay with Jurkat cells; 17000 nM in the assay with TMD8 cells; 661 nM in assay [1]; approximately 310 nM in the assay on OCI-Ly3 cells; more than 15000 nM in assay [3].
With `COc1ncc(NC(=O)c2cnn(-c3cncc4ccccc34)c2C(F)(F)F)cc1Cl` [Cpd 23, N-(5-chloro-6-methoxypyridin-3-yl)-1-(isoquinolin-4-yl)-5-(trifluoromethyl)-1H-pyrazole-4-carboxamide], the IC50 in the assay with Jurkat cells amounted to 810 nM; with TMD8 cells, 8320 nM; in assay [1], 89 nM; in the assay on OCI-Ly3 cells, 3390 nM; in assay [3] it was 107 nM.
Turning to `COc1ncc(NC(=O)c2cnn(-c3cncc4ccccc34)c2C(F)(F)F)cc1C#N` [Cpd 24, N-(5-cyano-6-methoxypyridin-3-yl)-1-(isoquinolin-4-yl)-5-(trifluoromethyl)-1H-pyrazole-4-carboxamide], the IC50 in the assay on Jurkat cells is 740 nM; with TMD8 cells, approximately 10000 nM; in assay [1] it was 74 nM; with OCI-Ly3 cells, approximately 1950 nM; in assay [2] it was 129 nM; in assay [3], 93 nM.
Regarding `O=C(Nc1cnc(-n2nccn2)c(Cl)c1)c1cnn(-c2cccc3ncc(F)cc23)c1C(F)(F)F` [Cpd 25, N-(5-Chloro-6-(2H-1,2,3-triazol-2-yl)pyridin-3-yl)-1-(3-fluoroquinolin-5-yl)-5-(trifluoromethyl)-1H-pyrazole-4-carboxamide], the IC50 is 210 nM with Jurkat cells; approximately 14100 nM in the assay with TMD8 cells; 72 nM in assay [1]; 3310 nM in the assay with OCI-Ly3 cells; 174 nM in assay [3].
Consider `CC(C)c1c(C(=O)Nc2cnc(-n3nccn3)c(Cl)c2)cnn1-c1cccc2ncccc12` [Cpd 26, N-(5-chloro-6-(2H-1,2,3-triazol-2-yl)pyridin-3-yl)-5-isopropyl-1-(quinolin-5-yl)-1H-pyrazole-4-carboxamide], for which the IC50 in the assay with Jurkat cells was 790 nM; in the assay on TMD8 cells it was 8710 nM; in assay [1], 631 nM; in the assay with OCI-Ly3 cells it was 4790 nM; in assay [3], 575 nM.
In the case of `Cc1ccc(-n2ncc(C(=O)Nc3cnc(-n4nccn4)c(Cl)c3)c2C(F)(F)F)c2cccnc12` [Cpd 28, N-(5-Chloro-6-(2H-1,2,3-triazol-2-yl)pyridin-3-yl)-1-(8-methylquinolin-5-yl)-5-(trifluoromethyl)-1H-pyrazole-4-carboxamide], the IC50 in the assay on Jurkat cells is 200 nM; with TMD8 cells it was 6610 nM; in assay [1], 68 nM; with OCI-Ly3 cells it was 1510 nM; in assay [3] it was 141 nM.
For the molecule `O=C(Nc1cnc(-n2nccn2)c(Cl)c1)c1cnn(-c2cncc3ccccc23)c1C(F)(F)F` [Cpd 32, N-(5-chloro-6-(2H-1,2,3-triazol-2-yl)pyridin-3-yl)-1-(isoquinolin-4-yl)-5-(trifluoromethyl)-1H-pyrazole-4-carboxamide], the IC50 in the assay with Jurkat cells came out at 2 nM; in the assay with TMD8 cells, 4900 nM; in assay [1], 19 nM; with OCI-Ly3 cells it was 110 nM; in assay [2], 14 nM; in assay [3], 17 nM.
Regarding `O=C(Nc1cnc(-n2nccn2)c(Cl)c1)c1cnn(-c2cccc3occc23)c1C(F)(F)F` [Cpd 34, 1-(Benzofuran-4-yl)-N-(5-chloro-6-(2H-1,2,3-triazol-2-yl)pyridin-3-yl)-5-(trifluoromethyl)-1H-pyrazole-4-carboxamide], the IC50 was 16 nM in the assay with Jurkat cells; approximately 12000 nM in the assay with TMD8 cells; 9 nM in assay [1]; approximately 220 nM with OCI-Ly3 cells; 7 nM in assay [2]; approximately 11 nM in assay [3].
With `COC(C)c1c(C(=O)Nc2cnc(-n3nccn3)c(Cl)c2)cnn1-c1cccc2ncccc12` (stereo not shown) [Cpd 35, N-(5-Chloro-6-(2H-1,2,3-triazol-2-yl)pyridin-3-yl)-5-(1-methoxyethyl)-1-(quinolin-5-yl)-1H-pyrazole-4-carboxamide], the IC50 was found to be 3240 nM in the assay on Jurkat cells; 11000 nM in the assay on TMD8 cells; 813 nM in assay [1]; 10700 nM in the assay with OCI-Ly3 cells; 2880 nM in assay [2]; 6030 nM in assay [3].
Turning to `Cc1ccc2cncc(-n3ncc(C(=O)Nc4cnc(-n5nccn5)c(Cl)c4)c3C(F)(F)F)c2c1` [Cpd 36, N-(5-Chloro-6-(2H-1,2,3-triazol-2-yl)pyridin-3-yl)-1-(6-methylisoquinolin-4-yl)-5-(trifluoromethyl)-1H-pyrazole-4-carboxamide], the IC50 came to 270 nM in the assay with Jurkat cells; 7940 nM in the assay with TMD8 cells; 63 nM in assay [1]; 1910 nM with OCI-Ly3 cells; 141 nM in assay [2]; 135 nM in assay [3].
As for `O=C(Nc1ccc(-n2nccn2)c(Cl)c1)c1cnn(-c2cncc3ccccc23)c1C(F)(F)F` [Cpd 38, N-(3-chloro-4-(2H-1,2,3-triazol-2-yl)phenyl)-1-(isoquinolin-4-yl)-5-(trifluoromethyl)-1H-pyrazole-4-carboxamide], the IC50 in the assay with Jurkat cells is 21 nM; in the assay with TMD8 cells it was 3800 nM; in assay [1], 20 nM; with OCI-Ly3 cells, 1150 nM; in assay [2], 14 nM; in assay [3], 46 nM.
With `Cc1c(C(=O)Nc2cnc(-n3nccn3)c(Cl)c2)cnn1-c1cccc2ncccc12` [Cpd 39, N-(5-Chloro-6-(2H-1,2,3-triazol-2-yl)pyridin-3-yl)-5-methyl-1-(quinolin-5-yl)-1H-pyrazole-4-carboxamide], the IC50 in the assay with Jurkat cells was 1970 nM; in the assay on TMD8 cells it was 14400 nM; in assay [1], 759 nM; in the assay on OCI-Ly3 cells it was approximately 1120 nM; in assay [2] it was 955 nM; in assay [3], 1950 nM.
In the case of `O=C(Nc1cnc(-n2nccn2)c(Cl)c1)c1cnn(-c2ccc(F)c3ncccc23)c1C(F)(F)F` [Cpd 40, N-(5-Chloro-6-(2H-1,2,3-triazol-2-yl)pyridin-3-yl)-1-(8-fluoroquinolin-5-yl)-5-(trifluoromethyl)-1H-pyrazole-4-carboxamide], the IC50 with Jurkat cells is 95 nM; in the assay with TMD8 cells it was 6170 nM; in assay [1] it was 48 nM; in the assay with OCI-Ly3 cells, 150 nM; in assay [2], 35 nM; in assay [3], 30 nM.
